Data taken from PMC9082918, “Time-course changes in DNA damage of corneal epithelial cells in rabbits following ocular instillation with genotoxic compounds” (Genes and Environment, 2022).
Where two headings read alike, the source gives them in different places. Marks after values point to notes of the source that are not given here.

Columns and labels:
[1] = system: corneal epithelial cells of rabbit; assay: In vivo alkaline comet assay of corneal epithelial cells after single ocular instillation
Method: Experiments were performed per sampling time, and […] clinically normal rabbits were randomly assigned to each treatment group.
After ocular instillation, the eyelids were artificially blinked several times. The rabbits were euthanized after 0.5, 2, 4, 6, and 24 h by intravenously administering an overdose (approximately 90 mg/kg) of thiopental solution (Ravonal; Nipro ES Pharma Co. Ltd., Osaka, Japan). The eyeballs of the rabbits were collected after euthanasia and subjected to the comet assay.
The collected eyes were washed with Ca^2+- and Mg^2+-free phosphate-buffered saline (PBS). After washing, the corneas were removed from the eyes using scissors. The removed corneas were treated with 1.2 unit/mL Dispase II (Roche Diagnostics K.K., Tokyo, Japan) in minimum essential media (MEM; Thermo Fisher Scientific K. K., Tokyo, Japan) supplemented with 10% bovine serum (10% BS/MEM) overnight at 4 °C. Corneal epithelial cells were isolated using a spatula and placed into fresh 10% BS/MEM. The cells were centrifuged at 200×g for 5 min, and the supernatants were discarded. The cells were resuspended in 1 mL of 0.25% trypsin (Thermo Fisher Scientific K. K.) and incubated for 10 min at 37 °C. Furthermore, 8 mL of 10% BS/MEM was added to the cells, and the cell suspensions were passed through a 70-μm cell strainer. The cells were centrifuged at 200×g for 5 min, and the supernatants were discarded. The cells were then resuspended with PBS to a density of approximately 2 × 10^5 cells/mL.
The alkaline comet assay was conducted according to previously published method. A 30 μL of the prepared cell suspension was mixed with 270 μL of melted agarose solution (CometAssay LMAgarose; Trevigen, Inc., Gaithersburg, MD). Then, 30 μL of this mixture was placed in each well of a 20-well slide (CometSlide HT, Trevigen, Inc.), and the slide was left for approximately 10 min at 4 °C to solidify the agarose. The slide was immersed in lysis solution (pH 10) containing 2.5 M sodium chloride, 100 mM di-sodium dihydrogen ethylenediaminetetraacetate dihydrate (EDTA∙2Na), 10 mM tris(hydroxymethyl)aminomethane (Tris), and 1% (v/v) polyethylene glycol mono-p-isooctylphenyl ether for 1 h at 4 °C. Subsequently, the slide was immersed in an alkaline unwinding solution (200 mM sodium hydroxide and 1 mM EDTA, pH > 13) for 20 min at room temperature. Electrophoresis was performed with the same solution at 1 V/cm for 30 min under refrigeration. After electrophoresis, the slide was washed twice with ultrapure water and dehydrated by immersion in ethanol for 10 min. The slide was stained with SYBR Green I Nucleic Acid Gel Stain (excitation maxima at 497 nm, emission maxima at 520 nm; Thermo Fisher Scientific K. K.) diluted 1:1000 with Tris-EDTA buffer (pH 7.5) and mounted using ProLong Gold (Thermo Fisher Scientific K. K.). The slide was observed using a BX51 fluorescence microscope (Olympus Corporation, Tokyo, Japan) with a NIBA filter (excitation at 460–495 nm and emission at 510–550 nm) equipped with a CCD camera (scA1300-32 fm; Basler AG, Ahrensburg, Germany).
First, the number of “hedgehogs” was counted among 150 comets per eye (450 comets per group). According to the Atlas of Comet Assay Images, hedgehogs are highly fragmented cells presenting as a small or non-existent comet head and large diffuse comet tail. Second, 150 scorable comets (i.e., with a clearly defined head and tail with no interference from neighboring cells) without hedgehogs were measured per eye (450 comets per group).

[2] = Cytotoxicity assay (Cell Counting Kit-8) after 1 min exposure; assay type: cell-based, human; details: human
Method: (§1) For cytotoxicity assay, the HCE-T cells were seeded in a 96-well culture plate at a density of 5 × 10^3 cells/well (100 μL/well) and incubated for approximately 24 h. After the 24-h incubation, the cells were washed with PBS. The cells were then exposed to a mixture of 50 μL of serum-free medium and an equal volume of test compounds at twice concentration of final concentration for 1 min at room temperature. After the treatment, the cells were washed with PBS, and 100 μL of fresh culture medium was added. The cells were further incubated for 2, 4, 6, and 24 h at 37 °C. After that, the cells were incubated with 100 μL of Cell Counting Kit-8 (Dojindo Laboratories Co., Ltd., Kumamoto, Japan) diluted to one-tenth with a serum-free medium for 2 h at 37 °C. Absorbance was measured at 450 nm using a microplate reader (Synergy HTX, BioTek Instruments Inc., Winooski, VT). Cell viability was calculated as follows: the absorbance of compound-treated cells/the absorbance of non-treated cells, expressed as a percentage (n = 3/group).
(§2) The mean and SD of the % tail DNA and cell viability (%) were calculated for all experimental groups. […] JMP version 15.1.0 was used for all statistical analyses.

[3] = system: anterior segment of the eye; assay: Ophthalmological examination of anterior ocular segment (slit-lamp, fluorescein staining); assay type: in vivo, rabbit
Method: (§3) Twenty-four hours after administration, the anterior segment of the eye was observed using a slit-lamp biomicroscope SL-130 (Carl Zeiss Meditec AG, Jena, Germany). The corneal epithelial damage was evaluated by staining with fluorescein (AYUMI Pharmaceutical Corporation, Tokyo, Japan). After anterior ocular observation, the rabbits were euthanized in the same manner as the comet assay, and the eyeballs of the rabbits were collected.

HCE-T cells [4] = assay: Cytotoxicity assay (Cell Counting Kit-8) after 1 min exposure; assay type: cell-based, human
Method: as §1, §2

HCE-T cells [5] = assay: In vitro comet assay after 1 min exposure; assay type: cell-based, human
Method: To assess time-course changes in DNA damage after short-time exposure to the genotoxic compounds, the in vitro comet assay was performed using HCE-T cells with reference to our previous study. Briefly, the HCE-T cells were seeded in a 12-well culture plate at a density of 5 × 10^4 cells/well (1 mL/well) and incubated for approximately 24 h. After a 24-h incubation, the cells were washed with PBS. […] After the treatment, the cells were washed with PBS, and 1 mL of fresh culture medium was added. The cells were further incubated for 2, 4, 6, and 24 h at 37 °C. After incubation, the cells were trypsinized (TrypLE™ Express, Thermo Fisher Scientific K.K.). In the same manner, the cells were exposed to the test compounds or distilled water as a negative control for 1 min to evaluate DNA damage immediately after exposure. Immediately after the treatment, the cells were washed and trypsinized. The collected cells were centrifuged and re-suspended in PBS at a density of 1–2 × 10^5 cells/mL. Comet assay was performed as described previously herein (n = 3/group).
as §2

rabbit cornea = assay: Histopathological examination of cornea; details: in vivo
Method: as §3
The collected eyes (one eye per group) were fixed with 1% formaldehyde/2.5% glutaraldehyde in 0.1 M phosphate buffer fixative overnight at 4 °C and post-fixed with 10% neutral-buffered formalin solution. The tissues were dehydrated using a graded alcohol series and embedded in paraffin. Approximately 3-μm-thick corneal tissue sections were prepared and stained with hematoxylin and eosin. All microscopic images were obtained with a BX53 microscope fitted with a DP74 digital camera (Olympus Corporation) and analyzed using the cellSens Standard imaging software, version 2.3 (Olympus Corporation).

[6] = after single ocular instillation (1% EtBr, 3% MMS, 1% 4-NQO), sampling at 0.5, 2, 4, 6, 24 h

Compound: O=[N+]([O-])c1cc[n+]([O-])c2ccccc12 [4-NQO, 4-nitroquinoline 1-oxide]
- Time of the peak value of the % tail DNA [1, 6]: 0.5 h
- viability at 2 h ([2]; read-out: Cell viability): 139 ± 2%
- viability at 4 h ([2]; read-out: Cell viability): 114 ± 14.5%
- viability at 6 h ([2]; read-out: Cell viability): 123 ± 24.2%
- viability at 24 h ([2]; read-out: Cell viability): 118 ± 13.9%

Compound: CC[n+]1c(-c2ccccc2)c2cc(N)ccc2c2ccc(N)cc21 [EtBr, ethidium bromide]
- Ophthalmological changes of the anterior ocular segment ([3]; 24 h after single ocular instillation (1% EtBr, 3% MMS)): No abnormal ophthalmological changes
- % tail DNA, median ([1]; 0.5 h after single ocular instillation (1% EtBr, 3% MMS, 1% 4-NQO)): 25.8%
- Frequency of hedgehog ([1]; 0.5 h after single ocular instillation (1% EtBr, 3% MMS, 1% 4-NQO), mean ± SD, n = 3): 3.6 ± 2.5%
- % tail DNA, mean ± SD ([1]; 0.5 h after single ocular instillation of 50 μL (1% EtBr, 3% MMS, 1% 4-NQO), n = 3 eyes): 31.0 ± 3.0%
- % tail DNA, median ([1]; 2 h after single ocular instillation (1% EtBr, 3% MMS, 1% 4-NQO)): 22.6%
- Frequency of hedgehog ([1]; 2 h after single ocular instillation (1% EtBr, 3% MMS, 1% 4-NQO), mean ± SD, n = 3): 3.3 ± 1.7%
- % tail DNA, mean ± SD ([1]; 2 h after single ocular instillation of 50 μL (1% EtBr, 3% MMS, 1% 4-NQO), n = 3 eyes): 28.1 ± 1.6%
- % tail DNA, median ([1]; 4 h after single ocular instillation (1% EtBr, 3% MMS, 1% 4-NQO)): 61.5%
- Frequency of hedgehog ([1]; 4 h after single ocular instillation (1% EtBr, 3% MMS, 1% 4-NQO), mean ± SD, n = 3): 8.9 ± 3.5^a %
- % tail DNA, mean ± SD ([1]; 4 h after single ocular instillation of 50 μL (1% EtBr, 3% MMS, 1% 4-NQO), n = 3 eyes): 55.3 ± 1.4%
- % tail DNA, median ([1]; 6 h after single ocular instillation (1% EtBr, 3% MMS, 1% 4-NQO)): 40.4%
- Frequency of hedgehog ([1]; 6 h after single ocular instillation (1% EtBr, 3% MMS, 1% 4-NQO), mean ± SD, n = 3): 1.6 ± 2.3%
- % tail DNA, mean ± SD ([1]; 6 h after single ocular instillation of 50 μL (1% EtBr, 3% MMS, 1% 4-NQO), n = 3 eyes): 41.0 ± 6.5%
- % tail DNA, median ([1]; 24 h after single ocular instillation (1% EtBr, 3% MMS, 1% 4-NQO)): 5.4%
- Frequency of hedgehog ([1]; 24 h after single ocular instillation (1% EtBr, 3% MMS, 1% 4-NQO), mean ± SD, n = 3): 0.4 ± 0.6%
- % tail DNA, mean ± SD ([1]; 24 h after single ocular instillation of 50 μL (1% EtBr, 3% MMS, 1% 4-NQO), n = 3 eyes): 10.0 ± 4.0%
- Time of the peak value of the % tail DNA [1, 6]: 4 h
- viability at 2 h ([2]; read-out: Cell viability): 89.3 ± 6.1%
- viability at 4 h ([2]; read-out: Cell viability): 74.7 ± 8%
- viability at 6 h ([2]; read-out: Cell viability): 73.1 ± 4.6%
- viability at 24 h ([2]; read-out: Cell viability): 39.1 ± 1.3%
- Cytotoxicity (in words) (HCE-T cells [4]; 24 h after removing the compound, 1 min exposure, 0.5% EtBr): Moderate cytotoxicity
- Cytotoxicity (in words) (HCE-T cells [4]; other times (2, 4, 6 h) after removing the compound, 1 min exposure, 0.5% EtBr): slight cytotoxicity
- Change of % tail DNA after removing the compound (HCE-T cells [5]; 1 min exposure (0.5% EtBr, 0.5% MMS, 0.001% 4-NQO), then 2, 4, 6, 24 h in fresh medium): gradually increased

Compound: COS(C)(=O)=O [MMS, methyl methanesulfonate]
- Ophthalmological changes of the anterior ocular segment ([3]; rabbit, in vivo): No abnormal ophthalmological changes
- Time of the peak value of the % tail DNA ([1]; rabbit, in vivo): 0.5 h
- % tail DNA, mean ± SD ([1]; rabbit, in vivo, 0.5 h): 66.2 ± 1.8%
- % tail DNA, median ([1]; rabbit, in vivo, 0.5 h): 70.8%
- Frequency of hedgehog ([1]; rabbit, in vivo, 0.5 h): 12.9 ± 7.8^a %
- % tail DNA, mean ± SD ([1]; rabbit, in vivo, 2 h): 63.6 ± 4.4%
- % tail DNA, median ([1]; rabbit, in vivo, 2 h): 69.4%
- Frequency of hedgehog ([1]; rabbit, in vivo, 2 h): 13.6 ± 8.3^a %
- % tail DNA, mean ± SD ([1]; rabbit, in vivo, 4 h): 47.1 ± 7.2%
- % tail DNA, median ([1]; rabbit, in vivo, 4 h): 48.9%
- Frequency of hedgehog ([1]; rabbit, in vivo, 4 h): 10.7 ± 1.0^a %
- % tail DNA, mean ± SD ([1]; rabbit, in vivo, 6 h): 50.1 ± 2.8%
- % tail DNA, median ([1]; rabbit, in vivo, 6 h): 56.0%
- Frequency of hedgehog ([1]; rabbit, in vivo, 6 h): 8.0 ± 2.0^a %
- % tail DNA, mean ± SD ([1]; rabbit, in vivo, 24 h): 40.1 ± 2.4%
- % tail DNA, median ([1]; rabbit, in vivo, 24 h): 38.1%
- Frequency of hedgehog ([1]; rabbit, in vivo, 24 h): 2.0 ± 1.0^a %
- Infiltrate, inflammatory cell, corneal limbus (rabbit cornea): ±
- viability at 2 h [2]: 115 ± 5.1%
- viability at 4 h [2]: 108.1 ± 0.3%
- viability at 6 h [2]: 108 ± 4.9%
- viability at 24 h [2]: 108 ± 11.3%
- Cytotoxicity (in words) (HCE-T cells [4]): no cytotoxicity
- Change of % tail DNA after removing the compound (HCE-T cells [5]): decreased
